Data from the supplement of paper PMC10307832.

Assays:
Assay in all cases: relative viability (nuclei count vs DMSO), 5 days (fraction); higher = more cells survive
Alisertib + Palbociclib = compound: COc1cc(Nc2ncc3c(n2)-c2ccc(Cl)cc2C(c2c(F)cccc2OC)=NC3)ccc1C(=O)O [Alisertib] + CC(=O)c1c(C)c2cnc(Nc3ccc(N4CCNCC4)cn3)nc2n(C2CCCC2)c1=O [Palbociclib] (partner 0.5 µM)
Summary of the method: (§1)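 Five library-drug doses in √10 steps were combined with a fixed anchor-drug dose, or a single drug was given alone, by pin tool to lung cancer cell lines in 1536-well plates the day after seeding. Nuclei were stained and counted after 5 days. Relative viability is the nuclei count in treated wells over that in vehicle wells, taken as the median of duplicate plates.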

Alisertib + Crizotinib = compound: COc1cc(Nc2ncc3c(n2)-c2ccc(Cl)cc2C(c2c(F)cccc2OC)=NC3)ccc1C(=O)O [Alisertib] + C[C@@H](Oc1cc(-c2cnn(C3CCNCC3)c2)cnc1N)c1c(Cl)ccc(F)c1Cl [Crizotinib] (partner 1 µM)
Summary of the method: as §1

Alisertib + AZD7762 = compound: COc1cc(Nc2ncc3c(n2)-c2ccc(Cl)cc2C(c2c(F)cccc2OC)=NC3)ccc1C(=O)O [Alisertib] + NC(=O)Nc1cc(-c2cccc(F)c2)sc1C(=O)N[C@H]1CCCNC1 [AZD7762] (partner 0.2 µM)
Summary of the method: as §1

Alisertib + Vorinostat = compound: COc1cc(Nc2ncc3c(n2)-c2ccc(Cl)cc2C(c2c(F)cccc2OC)=NC3)ccc1C(=O)O [Alisertib] + O=C(CCCCCCC(=O)Nc1ccccc1)NO [Vorinostat] (partner 1 µM)
Summary of the method: as §1

Cell Line | relative viability (Alisertib + Palbociclib; first compound 0.005 µM) | relative viability (Alisertib + Palbociclib; first compound 0.01581 µM) | relative viability (Alisertib + Palbociclib; first compound 0.05 µM) | relative viability (Alisertib + Palbociclib; first compound 0.1581 µM) | relative viability (Alisertib + Palbociclib; first compound 0.5 µM) | relative viability (Alisertib + Crizotinib; first compound 0.005 µM) | relative viability (Alisertib + Crizotinib; first compound 0.01581 µM) | relative viability (Alisertib + Crizotinib; first compound 0.05 µM) | relative viability (Alisertib + Crizotinib; first compound 0.1581 µM) | relative viability (Alisertib + Crizotinib; first compound 0.5 µM) | relative viability (Alisertib + AZD7762; first compound 0.005 µM) | relative viability (Alisertib + AZD7762; first compound 0.01581 µM) | relative viability (Alisertib + AZD7762; first compound 0.05 µM) | relative viability (Alisertib + AZD7762; first compound 0.1581 µM) | relative viability (Alisertib + AZD7762; first compound 0.5 µM) | relative viability (Alisertib + Vorinostat; first compound 0.005 µM) | relative viability (Alisertib + Vorinostat; first compound 0.01581 µM) | relative viability (Alisertib + Vorinostat; first compound 0.05 µM) | relative viability (Alisertib + Vorinostat; first compound 0.1581 µM) | relative viability (Alisertib + Vorinostat; first compound 0.5 µM)
NCI-H1975 | 0.454 | 0.547 | 0.299 | 0.259 | 0.168 | 0.945 | 0.728 | 0.301 | 0.27 | 0.193 | 0.658 | 0.618 | 0.521 | 0.33 | 0.192 | 0.657 | 0.688 | 0.284 | 0.214 | 0.201
NCI-H1993 | 0.583 | 0.672 | 0.529 | 0.402 | 0.35 | 0.564 | 0.744 | 0.6 | 0.573 | 0.527 | 0.85 | 0.629 | 0.391 | 0.324 | 0.364 | 0.63 | 0.436 | 0.395 | 0.372 | 0.339
NCI-H2085 | 0.505 | 0.469 | 0.344 | 0.346 | 0.336 | 0.757 | 0.693 | 0.33 | 0.391 | 0.388 | 0.876 | 0.874 | 0.882 | 0.284 | 0.348 | 0.73 | 0.771 | 0.431 | 0.441 | 0.448
NCI-H2087 | 0.226 | 0.271 | 0.154 | 0.11 | 0.109 | 0.893 | 0.609 | 0.176 | 0.225 | 0.209 | 1.17 | 1.29 | 0.293 | 0.214 | 0.185 | 0.758 | 0.667 | 0.173 | 0.106 | 0.133
NCI-H2126 | 0.314 | 0.378 | 0.346 | 0.304 | 0.269 | 0.96 | 0.945 | 0.486 | 0.365 | 0.311 | 0.936 | 0.965 | 0.883 | 0.466 | 0.288 | 0.682 | 0.802 | 0.366 | 0.207 | 0.198
NCI-H2170 | 0.366 | 0.365 | 0.243 | 0.22 | 0.155 | 1.17 | 1.03 | 0.438 | 0.325 | 0.225 | 0.85 | 0.608 | 0.59 | 0.199 | 0.176 | 0.766 | 0.782 | 0.318 | 0.2 | 0.164
NCI-H2347 | 0.427 | 0.429 | 0.438 | 0.387 | 0.362 | 0.783 | 0.526 | 0.61 | 0.454 | 0.468 | 0.741 | 0.671 | 0.585 | 0.387 | 0.37 | 0.522 | 0.569 | 0.518 | 0.407 | 0.343
NCI-H2405 | 0.497 | 0.504 | 0.495 | 0.317 | 0.257 | 0.781 | 0.794 | 0.491 | 0.268 | 0.253 | 0.589 | 0.684 | 0.66 | 0.24 | 0.251 | 0.913 | 0.898 | 0.799 | 0.288 | 0.213
NCI-H3122 | 0.174 | 0.174 | 0.215 | 0.139 | 0.149 | 0.244 | 0.306 | 0.217 | 0.218 | 0.191 | 0.973 | 0.78 | 0.776 | 0.259 | 0.203 | 0.891 | 0.79 | 0.799 | 0.282 | 0.186
PC-3 [JPC-3] | 0.537 | 0.53 | 0.515 | 0.541 | 0.513 | 0.955 | 0.981 | 0.646 | 0.474 | 0.386 | 0.649 | 0.778 | 0.705 | 0.403 | 0.317 | 0.596 | 0.68 | 0.769 | 0.367 | 0.354
PC-14 | 0.526 | 0.45 | 0.332 | 0.082 | 0.0483 | 0.845 | 0.877 | 0.654 | 0.145 | 0.112 | 0.226 | 0.38 | 0.272 | 0.0966 | 0.0539 | 0.627 | 0.63 | 0.367 | 0.0643 | 0.0761
RERF-LC-KJ | 1.07 | 0.834 | 0.601 | 0.275 | 0.246 | 0.831 | 0.662 | 0.692 | 0.206 | 0.196 | 0.798 | 0.799 | 0.801 | 0.236 | 0.214 | 0.626 | 0.507 | 0.391 | 0.252 | 0.213
